Measured values as given in patent publication US5141947A, “Fibrinolysis-enhancing agents” (Mitsubishi Kasei Corporation, priority 1984, dated 1992).

Key:
[1] = tested on: fibrinolysis of plasma by t-PA (tissue plasminogen activator); assay: fibrinolysis of plasma aggregation effected by t-PA; 0.15 ml plasma in 0.7 ml total (Examples 2 and 3); format: biochemical, healthy person (human)
Description: (§1) One part by volume of 3.8% sodium citrate solution was added to 9 parts by volume of the venous blood of a healthy person and centrifuged at 3,000 rpm for 15 minutes to collect the plasma.
(§2) There was placed 0.6 ml of the plasma into a spectrophotometric microcell having a path length of 10 mm and a path width of 2 mm. After adding 0.015 ml of physiological saline containing the compound (Ia) in various concentrations, the cell was held in the cell holder of a spectrophotometer, Hitachi 220 A, which was maintained at 37° C. and incubated for 5 minutes. Into the cell, there was added 0.025 ml of a solution of 8.0 μg/ml t-PA (tissue plasminogen activator) or 3,000 international units per ml high molecular weight UK, urokinase manufactured by The Green Cross Corporation, and […] CaCl2 solution. Changes in the absorbance at 608 nm were recorded at 37° C. every one minute. Thus, the coagulation and fibrinolysis of the plasma were measured with the time lapse.
(§3) The coagulation time is defined as a time period from the time 0 at which CaCl2 solution is added to a coagulation initiation time at which the absorbance has increased to a value larger by 0.025 than the value at the time 0: i.e., delta A is 0.025. The dissolution time is defined as a time period from the coagulation initiation time to a fibrinolysis termination time at which the absorbance has decreased to a value 10% that of the maximum value.
(§4) The procedures of Example 1 were repeated except that a less amount cf plasma was used. Thus, in the same manner as Example 1, there was collected 0.15 ml of plasma to which 0.1 ml of physiological saline containing the compound (Ia) in various concentrations was added, the total volume was adjusted to 0.375 ml, the resulting mixture was incubated at 37° C. for 5 minutes, 0.025 ml of a solution of 1.6 μg/ml t-PA or 500 international units per ml high molecular weight UK and 0.3 ml of 0.025M CaCl2 solution were added, and the coagulation and fibrinolysis of the plasma were measured with the time lapse to determine the coagulation time and dissolution time.
Activities of arginine derivatives having the thrombin-inhibiting effect and the structural formula shown below on the fibrinolysis by t-PA were estimated in the same manner as Example 2.

[2] = acute toxicity, LD50, intravenous, male mice; settings: mouse, in vivo, male mice weighing 20 g
Description: The arginine derivative of the formula (Ia) above was prepared in accordance with Example 2 described in the European Patent Application Publication No. 8746.

[3] = tested on: fibrinolysis of plasma by UK (urokinase); assay: fibrinolysis of plasma aggregation effected by UK; 0.15 ml plasma in 0.7 ml total (Example 2); format: biochemical, healthy person (human)
Description: as §1, §2, §3, §4

[4] = tested on: thrombus in carotid artery of rabbit; assay: in vivo thrombolysis by t-PA, rabbit carotid artery thrombus (Example 4); settings: Compound (Ia) 1.2 mg/kg alone
Description: The carotid artery of a rabbit was exposed from the surrounding tissue under anesthesia by pentobarbital. The exposed artery was surrounded with absorbent cotton soaked with glacial acetic acid and allowed to stay for 3 hours to form thrombus by the damage done to the endorthelium. The thus formed thrombus was tested for dissolution. Immediately after removing out the cotton, physiological saline in which the substance to be tested had been dissolved was injected through the femoral vein. The infusion was continued over 2 hours. After the infusion, the arterial segment wherein the thrombus had been formed was cut out and the thrombus mass was removed out under a microscope. The thrombus was dissolved in alkali and the protein was quantitatively measured by phenol method.

[5] = tested on: fibrinolysis of plasma by UK (urokinase); assay: fibrinolysis of plasma aggregation effected by UK; 0.6 ml plasma in 0.7 ml total (Example 1); format: biochemical, healthy person (human); settings: for Coagulation Time / Dissolution Time: n=5, average ± S.E.M.
Description: as §1, §2
(§5) In the FIGURE, the ordinate represents the difference of absorbance (ΔA) at 608 nm and the abscissa represents the time in minutes.
(§6) The effects of the compound (Ia) on the dissolution time and the coagulation time were measured on the plasma from five healthy persons. […] Values in Tables are expressed in the average+S.E.M.
as §3

[6] = tested on: fibrinolysis of plasma by t-PA (tissue plasminogen activator); assay: fibrinolysis of plasma aggregation effected by t-PA; 0.6 ml plasma in 0.7 ml total (Example 1); format: biochemical, healthy person (human); settings: for Coagulation Time / Dissolution Time: n=5, average ± S.E.M.
Description: as §1, §2, §5, §6, §3

[7] = Table 5, 0.3 μM, control 2.9 min
[8] = Table 5, 0.3 μM, control 95.7 min

With `COCCN(CC(=O)O)C(=O)[C@H](CCCNC(=N)N)NS(=O)(=O)c1ccc2cc(OC)c(OC)cc2c1` [Compound 1] the “Coagulation Time” value [1, 7] was 3.2 min and the “Dissolution Time” value [1, 8] was 55.4 min.
For `COc1ccc2ccc(S(=O)(=O)N[C@@H](CCCNC(=N)N)C(=O)N3CCC(C)CC3C(=O)O)cc2c1` (stereo partly shown) [Compound 2], the “Coagulation Time” value [1, 7] was 4.1 min and the “Dissolution Time” value [1, 8] was 36.5 min.
For `CCC1CCN(C(=O)[C@H](CCCNC(=N)N)NS(=O)(=O)c2ccc3cc(OC)c(OC)cc3c2)C(C(=O)O)C1` (stereo partly shown) [Compound 3], the “Coagulation Time” value [1, 7] was 3.2 min and the “Dissolution Time” value [1, 8] was 53.4 min.
With `Cc1ccc2ccc(S(=O)(=O)N[C@@H](CCCNC(=N)N)C(=O)N3CCC(C)CC3C(=O)O)cc2c1` (stereo partly shown) [Compound 4] the “Coagulation Time” value [1, 7] was 3.1 min and the “Dissolution Time” value [1, 8] was 50.5 min.
For `CC1CNc2c(cccc2S(=O)(=O)N[C@@H](CCCNC(=N)N)C(=O)N2CC[C@@H](C)C[C@@H]2C(=O)O)C1` (stereo partly drawn) [Compound (Ia), (2R, 4R)-1-[N^2-(3-methyl-1,2,3,4-tetrahydro-8-quinolinesulfonyl)-L-arginyl]-4-methyl-2-piperidinecarboxylic acid], the LD50 [2] was 211 mg/kg, the Coagulation Time ([1]; 0.01 μM) was “prolonged slightly” and the “Coagulation Time” value ([1]; 0.01 μM, n=5) was 4.5 ± 0.2 min. The “Dissolution Time” value ([1]; 0.01 μM, n=5) was 64.1 ± 10.2 min, the “Coagulation Time” value ([1]; 0.03 μM, n=5) was 5.0 ± 0.2 min and the “Dissolution Time” value ([1]; 0.03 μM, n=5) was 51.6 ± 7.7 min. The “Coagulation Time” value ([1]; 0.1 μM, n=5) was 6.7 ± 0.3 min, the “Dissolution Time” value ([1]; 0.1 μM, n=5) was 34.5 ± 5.2 min and the “dissolution time decreased to fraction of the time without addition” value ([1]; 0.3 μM) was “about 1/3”. For the same compound, the “Coagulation Time” value ([1]; 0.3 μM, n=5) was 9.0 ± 0.3 min, the “Dissolution Time” value ([1]; 0.3 μM, n=5) was 26.6 ± 2.4 min and the fibrinolysis ([1]; as low as 0.01 μM) was “enhanced”. The Coagulation Time ([3]; 0.01 μM) was “prolonged slightly”, the “Coagulation Time” value ([3]; 0.01 μM, n=5) was 4.9 ± 0.6 min and the “Dissolution Time” value ([3]; 0.01 μM, n=5) was 63.8 ± 11.8 min. For the same compound, the “Coagulation Time” value ([3]; 0.03 μM, n=5) was 5.5 ± 0.4 min, the “Dissolution Time” value ([3]; 0.03 μM, n=5) was 35.9 ± 5.7 min and the “Coagulation Time” value ([3]; 0.1 μM, n=5) was 7.4 ± 0.8 min. The “Dissolution Time” value ([3]; 0.1 μM, n=5) was 23.4 ± 2.2 min, the “dissolution time decreased to fraction of the time without addition” value ([3]; 0.3 μM) was “about 1/4” and the “Coagulation Time” value ([3]; 0.3 μM, n=5) was 9.9 ± 0.8 min. The “Dissolution Time” value ([3]; 0.3 μM, n=5) was 22.5 ± 1.3 min, the fibrinolysis ([3]; as low as 0.01 μM) was “enhanced” and the thrombolytic effect [4] was “no thrombolytic effect”. The “Thrombus Protein” value ([4]; 2 h infusion, femoral vein, n=4, saline control 1.97 ± 0.38) was 2.03 ± 0.55 mg, the “dissolution time, in comparison with no addition” value ([5]; 0.1 μM or 0.3 μM) was “significantly reduced” and the “Coagulation Time” value ([5]; 0.1 μM) was 8.8 ± 1.1 min. The “Dissolution Time” value ([5]; 0.1 μM) was 28.2 ± 5.2 min, the “Coagulation Time” value ([5]; 0.3 μM) was 10.2 ± 1.4 min and the “Dissolution Time” value ([5]; 0.3 μM) was 24.6 ± 4.3 min. For the same compound, the “dissolution time, in comparison with no addition” value ([6]; 0.1 μM or 0.3 μM) was “significantly reduced”, the “Coagulation Time” value ([6]; 0.1 μM) was 10.6 ± 2.0 min and the “Dissolution Time” value ([6]; 0.1 μM) was 33.0 ± 2.0 min. For the same compound, the “Coagulation Time” value ([6]; 0.3 μM) was 13.8 ± 2.8 min and the “Dissolution Time” value ([6]; 0.3 μM) was 32.0 ± 2.8 min.
